The text below walks through data of ChEMBL document CHEMBL5325426, “Structure-based discovery of potent USP28 inhibitors derived from Vismodegib” (Eur J Med Chem, 2023).

Test [1] deals with T1, Ubiquitin carboxyl-terminal hydrolase 28 (Homo sapiens, UniProt Q96RU2).
T1 sequence (Q96RU2 whole entry): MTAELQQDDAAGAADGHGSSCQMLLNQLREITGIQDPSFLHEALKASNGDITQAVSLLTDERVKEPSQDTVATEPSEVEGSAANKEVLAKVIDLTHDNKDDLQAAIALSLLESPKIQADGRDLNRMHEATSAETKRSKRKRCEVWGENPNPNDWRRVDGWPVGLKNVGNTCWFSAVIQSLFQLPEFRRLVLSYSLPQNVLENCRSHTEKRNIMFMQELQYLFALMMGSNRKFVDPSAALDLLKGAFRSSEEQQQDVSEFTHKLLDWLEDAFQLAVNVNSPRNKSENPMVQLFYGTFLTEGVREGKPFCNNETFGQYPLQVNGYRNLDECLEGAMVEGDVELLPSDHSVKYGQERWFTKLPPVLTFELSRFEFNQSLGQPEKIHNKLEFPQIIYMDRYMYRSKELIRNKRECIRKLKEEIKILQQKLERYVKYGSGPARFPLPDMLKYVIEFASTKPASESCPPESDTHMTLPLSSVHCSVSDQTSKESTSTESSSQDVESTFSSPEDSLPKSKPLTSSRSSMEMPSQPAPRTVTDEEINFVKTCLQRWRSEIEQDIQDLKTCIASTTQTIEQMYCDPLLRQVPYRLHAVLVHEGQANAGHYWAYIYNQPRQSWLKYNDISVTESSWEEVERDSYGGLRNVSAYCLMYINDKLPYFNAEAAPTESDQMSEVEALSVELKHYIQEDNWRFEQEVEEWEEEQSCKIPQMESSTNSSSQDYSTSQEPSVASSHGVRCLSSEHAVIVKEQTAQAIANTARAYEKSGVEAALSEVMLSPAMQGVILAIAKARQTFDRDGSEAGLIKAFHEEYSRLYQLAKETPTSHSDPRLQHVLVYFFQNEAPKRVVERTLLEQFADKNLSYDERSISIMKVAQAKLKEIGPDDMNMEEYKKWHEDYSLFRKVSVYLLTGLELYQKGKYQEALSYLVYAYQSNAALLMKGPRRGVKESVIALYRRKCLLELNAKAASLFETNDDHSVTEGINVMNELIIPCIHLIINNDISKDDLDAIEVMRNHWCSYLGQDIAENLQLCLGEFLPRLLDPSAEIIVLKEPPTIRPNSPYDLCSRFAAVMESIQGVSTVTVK
As to the kind of experiment: Inhibition of USP28 (149 to 703 residues) (unknown origin) expressed in Escherichia coli BL21 (DE3) using Ub-AMC as substrate by fluorescence based analysis.

For test [2], the system named is HCT-116. Nature of the test: Antiproliferative activity against human HCT-116 cells assessed as cell growth inhibition incubated for 3 days by SRB assay. The class given is functional, cell-based. The note with it: HCT-116, 72 h.
Test [3] deals with LS174T. As to the kind of experiment: Antiproliferative activity against human LS174T cells assessed as cell growth inhibition incubated for 3 days by SRB assay. The class given is functional, cell-based. The note with it: 72 h.
Test [4] relates to Calu-1. Nature of the test: Antiproliferative activity against human Calu-1 cells assessed as cell growth inhibition incubated for 3 days by SRB assay. To be noted: Calu-1, 72 h. It counts as functional, cell-based.
Test [5] concerns NCI-H226. Nature of the test: Antiproliferative activity against human NCI-H226 cells assessed as cell growth inhibition incubated for 3 days by SRB assay. The class given is functional, cell-based. To be noted: NCI-H226, 72 h.

For `CS(=O)(=O)c1ccc(C(=O)Nc2ccc(Cl)c(-c3ccc(N)cc3)c2)c(Cl)c1`, the half-maximal inhibitory concentration (IC50) in test [1] was determined as 5680 nM.

Take `CS(=O)(=O)c1ccc(C(=O)Nc2ccc(Cl)c(-c3ccc(CN)cn3)c2)c(Cl)c1`: in test [1], the IC50 is 2130 nM.

`COc1ccc(-c2cc(NC(=O)c3ccc(S(C)(=O)=O)cc3Cl)ccc2Cl)cc1` had an IC50 in test [1] of 2940 nM.

In turn, `CS(=O)(=O)c1ccc(C(=O)Nc2ccc(Cl)c(-c3cccc(CN)c3)c2)c(Cl)c1` showed a 50% inhibitory concentration (IC50) in test [1] of 150 nM.

`CS(=O)(=O)c1ccc(C(=O)Nc2cc(Cl)cc(-c3ccc(CN)cc3)c2)c(Cl)c1`: the IC50 in test [1] amounted to 1130 nM.

Regarding `CS(=O)(=O)c1ccc(C(=O)Nc2ccc(Cl)c(-c3ccc(CN)cc3)c2)c(Cl)c1`, the half-maximal inhibitory concentration (IC50) in test [1] is 360 nM.

As to `Cc1ccc2c(N)c(C(=O)N[C@H]3CCc4cc(N5CC6CCC(C5)N6)ccc4C3)sc2n1`, the half-maximal inhibitory concentration (IC50) came out at 190 nM in test [2]; 70 nM in test [3]; 320 nM in test [4]; 150 nM in test [5]; 110 nM in test [1].

For `CS(=O)(=O)c1ccc(C(=O)Nc2ccc(Cl)c(-c3ccccc3N)c2)c(Cl)c1`, the IC50 in test [1] is 8580 nM.

Compound `CS(=O)(=O)c1ccc(C(=O)Nc2ccc(Cl)c(-c3ccc(N4CCNCC4)cc3)c2)c(Cl)c1` gave an IC50 in test [1] of 4240 nM.

With `CS(=O)(=O)c1ccc(C(=O)Nc2ccc(Cl)c(-c3cccc(N)c3)c2)c(Cl)c1`, in test [1], the IC50 was 11000 nM.

Consider `CN(C)c1ccc(-c2cc(NC(=O)c3ccc(S(C)(=O)=O)cc3Cl)ccc2Cl)cc1`, for which, in test [1], the IC50 worked out at 2820 nM.
